From patent US20210095293A1, “METHODS OF TREATING CANCERS WITH GPR132 INHIBITORS” (The Board of Regents of the University of Texas System, priority 2016, published 2021)

Assays:
[1] = molecular target: T1, macrophage Gpr132 (Mus musculus, UniProt Q9Z282); experiment: Gpr132 co-immunoprecipitation with LC-MS quantification of lactate; format: binding; conditions: lactate of <3 kDa EO771 CM, BMDM lysate
T1 construct: endogenous in cells; host or cells: bone marrow-derived macrophages (BMDMs) from WT C57BL/6 mice; Gpr132-KO BMDMs served as negative control
T1 sequence (Q9Z282 1-382): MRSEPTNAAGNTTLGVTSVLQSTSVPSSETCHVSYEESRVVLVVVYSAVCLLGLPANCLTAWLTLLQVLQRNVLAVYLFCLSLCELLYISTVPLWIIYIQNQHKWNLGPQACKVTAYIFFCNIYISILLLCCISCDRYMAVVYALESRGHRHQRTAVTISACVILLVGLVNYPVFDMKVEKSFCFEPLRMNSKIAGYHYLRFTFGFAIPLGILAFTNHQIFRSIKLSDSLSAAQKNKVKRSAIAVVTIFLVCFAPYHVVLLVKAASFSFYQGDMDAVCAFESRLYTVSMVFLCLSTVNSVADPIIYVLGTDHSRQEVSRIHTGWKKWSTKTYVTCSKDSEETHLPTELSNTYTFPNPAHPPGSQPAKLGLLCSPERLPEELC
Procedure: To determine whether lactate in the <3 kDa fraction of EO771 CM could bind to macrophage Gpr132, co-immunoprecipitation with anti-Gpr132 in WT and Gpr132-KO BMDMs was performed. Lactate pulled down by Gpr132 was quantified by liquid chromatography-mass spectrometry (LC-MS).
WT or Gpr132-KO BMDM lysate was incubated with concentrated <3 kDa EO771 CM for 4 hrs. This mixture of 1 ml volume was then incubated with 10 μl anti-Gpr132 antibody and 40 μl protein A/G plus-agarose beads overnight at 4° C. After the beads were washed, the IP eluent was collected for lactate quantification. Lactate was extracted and analyzed as reported (7). Briefly, 400 μl of cold MeOH was added to 100 μl of the IP eluent. Samples were mixed and then stored at −80° C. overnight. The next morning, samples were spun at 14,000 g for 10 min, and the supernatant was collected. After drying the supernatant via speedvac, the extract was dissolved in H2O (40 μl) and a portion of this sample (10 μl) analyzed by LC-MS. Lactate was measured using a TSQ Quantiva LC-MS instrument fitted with a Luna NH2 HPLC column ([…], 4.6 mm×100 mm, Phenomenex). The following LC solvents were used: buffer A, 95:5 H2O/ACN, 20 mM ammonium hydroxide, 20 mM ammonium acetate; buffer B, 100% ACN. […] Relative abundance of lactate was determined by measuring the lactate peak area.

[2] = system: macrophages; experiment: M2 marker expression in macrophages (Western blot, RT-qPCR, flow cytometry); format: cell-based, mouse
Procedure: After blocking with 10% BSA for 10 min, cells were incubated with anti-CD206 (Rabbit polyclonal, Abcam) or anti-Gpr132 (Rabbit polyclonal, Sigma) antibodies (1:100) for 30 min at 4° C., washed with cold PBS, and then incubated with FITC-conjugated secondary antibodies (1:100) for 30 min at 4° C. After washing twice using cold PBS, cells were analyzed by flow cytometer (Becton Dickinson). RNA was isolated from cells or mouse tissues using Trizol (Invitrogen) following the manufacturer's instructions. RNA (200-500 ng) was first treated with RNase-free DNase I using the DNA-free kit (Ambion) to remove all genomic DNA, and then reverse-transcribed into cDNA using an ABI High Capacity cDNA RT Kit (Invitrogen). The cDNA was analyzed using real-time quantitative PCR (SYBR Green, Invitrogen) with an Applied Biosystems 7900 Sequence Detection System. Each reaction was performed in triplicate in a 384-well format. The expression of each gene was normalized by that of mouse ribosomal protein L19. Samples of 20 μg protein were applied to SDS polyacrylamide gels. After protein transfer, membranes were incubated with antibodies for […] (rabbit polyclonal, Santa Cruz Biotechnology), CD206, Gpr132, or β-actin (mouse monoclonal, Sigma) (1:1000) overnight at 4° C. Membranes were washed, and then incubated with HRP-conjugated secondary antibodies (1:1000) for 1 hr at room temperature before signal detection by chemiluminescence (Pierce). Densitometric quantification was performed by Image-Pro Plus 6.0 software (Media Cybernetics). PathScan Akt Signaling Antibody Array (Cell Signaling) was incubated with macrophage proteins and analyzed following kit instructions.

Structure (SMILES): CC(O)C(=O)O (stereo not drawn) [lactate]
- lactate enrichment in Gpr132 co-IP eluent, WT vs Gpr132-KO macrophages [1]: 7.1 fold
- expression of M2 markers (CD206, GM-CSF, CCL17) in WT macrophages ([2]; exogenous lactate 5 mM 24 hrs (Western) or 25 mM 6 hrs (RT-qPCR), WT): increased
- effects on M2 markers in Gpr132-KO macrophages ([2]; exogenous lactate, Gpr132-KO): absent or largely attenuated
